Data set [1] deals with H1299 cells. Kind of data set: Colony formation assay. Type of data set: cell-based, human. Conditions: 7 days. The source says:
The colony formation assay is an important method for evaluating the ability of adherent cells to proliferate and form colonies on a plate, and it is widely used to assess cell proliferation. We also employed the colony formation assay to further confirm that compounds 7a and 7j can inhibit the proliferation of lung cancer cells, as shown in Fig. 5. After treating lung cancer cells with low, medium, and high concentrations (1, 2, 4 μmol/L) of compounds for 7 days, the number of cell colonies was counted to analyze the proliferation inhibition rate.
H1299 cells were seeded in six-well plates at a density of 500 cells per well and treated with 7a or 7j (1, 2 and 4 μmol/L) for 7 days. Then, cells were per-fixed with 4% paraformaldehyde for 30 min, stained with 0.1% Crystal violet for 15 min, and then washed with pure water. Taking a picture after the plates were air-dry. The clone formations number was counted with Image J.

Data set [2] relates to H1299 cells. Put plainly: Wound healing assay. Type of data set: cell-based, human. Conditions: 24 h. Here is the method: H1299 cells were seeded in a 6-well plate, When the cell confluency reached 95%, a wound line was scratched using a 200 µl pipette tip, and then washed three times, fresh medium containing 7a or 7j (2, 4 and 8 μmol/L) was added, and the plate was incubated at 37 °C with 5% CO2. All the images were captured at 0 h and 24 h under an inverted microscope, and the quantification of scratches was analysed using Image J.

In data set [3] the test system is H1299 cells. Put plainly: Flow cytometry detection of apoptosis (Annexin V-EGFP/PI). Type of data set: cell-based, human. The settings on record: 48 h. Here is the method: H1299 cells were treated with different concentrations of 7a and 7j for 48 h. The cells were stained with Annexin-V and PI, and the proportion of apoptotic cells was detected using flow cytometry.
H1299 cells were seeded in a 6-well plate at a density of 1 × 10^5 cells/well and incubated for 24 h. On the following day, the medium was replaced with fresh medium containing 7a or 7j (2, 4 and 8 μmol/L) and cells were incubated for an additional 48 h. Cell apoptosis was detected using Annexin V-EGFP/PI apoptosis detection Kit by flow cytometry. Subsequently, 5 µl of […] Annexin V and 10 µl of PI was added to the cell suspension, gently vortexed, and incubated at room temperature in the dark for 20 min, then single-cell suspension was prepared followed by flow cytometry (BD Accuri™ C6 Plus).

Another data set deals with L02 cells. Kind of data set: Cytotoxicity / survival rate in normal hepatocytes L02. The data set is classed as cell-based. The settings on record: for Survival rate %, 48 h: L02 cells.
Another data set deals with NCI-H1299 cells. Put plainly: CCK-8 assay for cell proliferation and cytotoxicity, NCI-H1299. The data set is classed as cell-based. Conditions: Homo sapiens, CCK-8, 48 h. Here is the method:
Three types of lung cells were seeded into 96-well plate at a density of 5 × 10^3 cells per well at logarithmic growth phase and cultured in 37 °C. […] After that, cell viability was determined according to the instruction of the CCK-8 assay. Next, 10 μL of CCK-8 solution was added to each well of the plate and incubate the plate for 1–4 h in the incubator. The absorbance was measured at 450 nm using a microplate reader (Bio-Tek). The percentage of viable cells was measured using the following formula where three independent experiments were performed: [(A450 sample − A450blank)/(A450 control − A450blank)] × 100%.
(In general: Tetrazolium assays rely on reduction of a dye to a coloured formazan, in cell work by metabolically active cells.)

The subject of data set [4] is H1299 cells. Put plainly: Transwell migration assay. The data set is classed as cell-based, human. Conditions: H1299, 2, 4 and 8 μmol/L, 24 h, vs normal control, p < 0.01. Here is the method: Transwell chamber migration assay is another important method to assess cell migration ability. Tumor cells are seeded in the chamber, and the number of tumor cells that pass through the membrane is counted to evaluate the migration ability of tumor cells.
Transwell assay was used to determine the migration ability of H1299 cells. Cells were starved in serum-free RPMI 1640 medium for 24 h, then detached and resuspended in serum-free RPMI 1640 medium. 5 × 10^5 cells/mL were inoculated into the upper chamber of a 24-well Transwell plate (Corning Inc., United States), with a volume of 100 µl per well. Then, 100 µL serum-free medium containing 7a or 7j (2, 4 and 8 μmol/L) was added to the upper chamber and the lower chamber was filled with 700 µL medium containing 20% FBS. After incubation for 24 h, H1299 cells on the upper membrane of the transwell were wiped off. The migrated cells were treated with 4% paraformaldehyde for 20 min, stained with 0.1% crystal violet for 20 min and washed three times with PBS. The number of H1299 cells that migrated to the underside of the membrane was counted under the inverted fluorescence microscope. Three randomly selected areas from each transwell were photographed and calculated using Image J.

Another data set relates to Kunming mice. Put plainly: Acute oral toxicity test in mice. Conditions: mouse, in vivo. The source says:
SPF-grade healthy Kunming mice (weighing 20 ± 2 g) were purchased from Henan Skibbes Bio-technology Co., Ltd (Licence No.: SCXK (Yu) 2020–0005). The mice were provided free access to drinking water and adaptive feeding for 7 days.
Twenty Kunming mice (half male and half female) were randomly allocate into 4 groups: 7a-treated group (male), 7a-treated group (female), control group (male) and control group (female). The control groups were given PBS intragastric administration, while the 7a groups were given the 7a solution (400 mg/kg, respectively), once a day for 2 consecutive days. Body weight and appearance were monitored for a total period of 12 days (from the first day after treating with 7a). The mice were killed by cervical dislocation on the 12th day, and blood samples were collected for the biochemistry test. Then, we measured liver and kidney function indicators such as alanine aminotransferase (ALT), aspartate aminotransferase (AST), serum creatinine (CRE) and blood urea nitrogen (BUN) (Nanjing Jiancheng Bioengineering Institute, China). The organs (brain, heart, liver, spleen, lungs, kidneys stomach) were harvested, and fixed in 10% formaldehyde and paraffin-embedded for histological examination. Finally, these sections were stained with haematoxylin and eosin for light microscopic examination.

In data set [5] the test system is H1299 cells. Put plainly: DAPI staining for cell apoptosis. Type of data set: cell-based, human. Conditions: H1299, 2, 4 and 8 μmol/L, 48 h. Here is the method:
In order to further verify the apoptotic activity induced by 7a and 7j in lung cancer cells, H1299 cells were treated with different concentrations of compounds 7a and 7j for 48 h, followed by DAPI staining. […] As the drug concentration increased, nuclear staining intensified, and even nuclear condensation and fragmentation phenomena were observed.
H1299 (1.5 × 10^4 ~ 2 × 10^4 /well) cells were seeded in 24-well plates for 24 h, and then treated with 7a or 7j at the concentrations of 2,4 and 8 μmol/L for 48 h., the cells were fixed for 30 min at room temperature in 4% paraformaldehyde and washed 3 times in PBS. Finally, every well was stained with DAPI (10 µg/mL, C0065, Solarbio) at room temperature for 30 min, and washed at least three times in PBS. The fluorescence microscope was used to observe the morphological changes of cell nuclei.

As usually defined, the IC50 is the concentration that gives 50% inhibition.

For the molecule `COc1cc2ncnc(Nc3cccc(-c4cn(Cc5cc(F)ccc5Br)nn4)c3)c2cc1OCCCN1CCOCC1` [Compound 7a], the “formation of H1299 cell colonies” value in the data set on H1299 cells [1] (1 μmol/L) is “markedly inhibit”. Also, the colony formation result in the data set on H1299 cells [1] (H1299, 4 μmol/L) was “almost completely suppressed”. For the same molecule, the migration closure rate in the data set on H1299 cells [2] (H1299, 2 μmol/L) was 65.16 ± 7.88%; in the data set with H1299 cells [2] (H1299, 4 μmol/L), 50.12 ± 2.99%; in the data set with H1299 cells [2] (H1299, 8 μmol/L) it was 23.54 ± 3.65%. Further, the “total apoptotic cell proportion” value in the data set with H1299 cells [3] (H1299, 2 μmol/L) is 19.03 ± 2.10%; in the data set on H1299 cells [3] (H1299, 4 μmol/L), 28.73 ± 1.12%; in the data set on H1299 cells [3] (H1299, 8 μmol/L) it was 50.1 ± 2.91%. Further, the IC50 was 18.9 ± 1.03 µM in the data set with L02 cells (Homo sapiens, normal hepatocytes L02) and 3.94 ± 0.17 µM in the data set with NCI-H1299 cells. The “Survival rate %, 48 h” value with L02 cells (2 μM) came out at 95.37 ± 2.98%; with L02 cells (4 μM), 71.97 ± 2.33%; in the data set on L02 cells (8 μM) it was 66.89 ± 1.52%; in the data set with L02 cells (16 μM), 63.25 ± 1.25%; with L02 cells (32 μM), 32.43 ± 0.95%. For the same molecule, the “number of cells passing through the membrane to the lower surface of the chamber” value with H1299 cells [4] is “significantly decreased”. In addition, the “acute toxicity in mice” value in the data set on Kunming mice is “low toxicity”. Also, the “apoptotic morphology by DAPI staining” value with H1299 cells [5] was “exhibited typical apoptotic features”.

The record behind these values is paper PMC11035632, “Discovery of gefitinib-1,2,3-triazole derivatives against lung cancer via inducing apoptosis and inhibiting the colony formation” (Scientific Reports, 2024).
